The results in this text go back to patent US20050054629A1, “Compounds and methods of treating cell proliferative diseases” (priority 2002, published 2005).

Test [1] has as its system H460 lung carcinoma. Briefly: Cytotoxicity assay (MTT), 6 days. Type of test: cell-based. To be noted: Homo sapiens, NCI-H460, 144 h, 6 days of treatment, read-out: Toxicity 6d (IC 50, μM) H460. The method, boiled down: (§1)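 5.10^3 or 2.10^4 cells/well plated, dosed next day (0, 1, 10, 17.5, 25, 50 μM; DMSO 1%). 6 d exposure → MTT 0.5 mg/ml, 3 h 37° C → DMSO solubilization → A550. IC50 calc., n=3.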

The subject of test [2] is MCF-7 breast carcinoma. Briefly: Cytotoxicity assay (MTT), 6 days. Conditions: Homo sapiens, MCF7, 144 h, 6 days of treatment, read-out: Toxicity 6d (IC 50, μM) MCF7. Format: cell-based. The method in brief: as §1
The subject of test [3] is MCF10-A. Briefly: Cytotoxicity assay (MTT), 6 days. Format: cell-based. To be noted: Homo sapiens, MCF-10A, 144 h, 6 days of treatment, read-out: Toxicity 6d (IC 50, μM) MCF10-A. The method, boiled down:
as §1

Test [4] has as its system MDA-MB-231 breast carcinoma. Briefly: Cytotoxicity assay (MTT), 6 days. Type of test: cell-based. To be noted: Homo sapiens, MDA-MB-231, 144 h, 6 days of treatment, read-out: Toxicity 6d (IC 50, μM) MDA231. The method, boiled down:
as §1

For test [5], the system named is MRC-5. Put plainly: Cytotoxicity assay (MTT), 6 days. Type of test: cell-based. To be noted: Homo sapiens, MRC5, 144 h, 6 days of treatment, read-out: Toxicity 6d (IC 50, μM) MRC-5. The method, boiled down: as §1
Test [6] relates to NIH3T3 mouse fibroblasts. Put plainly: Cytotoxicity assay (MTT), 6 days. To be noted: NIH3T3, 144 h, 6 days of treatment, read-out: Toxicity 6d (IC 50, μM) NIH3T3. Format: cell-based. The method in brief: as §1
Test [7] deals with HCT116 colon adenocarcinoma. Briefly: Cytotoxicity assay (MTT), 6 days. Format: cell-based, human. To be noted: Homo sapiens, HCT-116, 144 h, 6 days of treatment, read-out: Toxicity 6d (IC 50, μM) HCT116. The method in brief:
as §1

The test system of test [8] is HCT116 cells. Put plainly: Anchorage-independent growth assay (soft agar / Matrigel). Format: cell-based, human. To be noted: Homo sapiens, HCT-116, 168 h; HCT116, 3-dimensional growth, 1 week. The procedure:
In order to evaluate the effect of the compounds on the capacity of tumor cells to grow without anchorage, HCT116 cells were seeded either in agar or in Matrigel (BD, France). For 3D growth experiment in soft agar in 24-well plates, 5.10^3 HCT116 cells were resuspended in 250 μl of complete medium containing 0.3% soft-agar (Difco) and different concentrations of compound (0.1, 1, 10, 17.5, 25 and 50 μM). Cells were then poured on a solidified layer of medium containing 0.5% of soft-agar plus the compound at the same concentration than in the upper layer. Cells were incubated at 37° C. for 1 week before they were analysed using a phase contrast microscope (Nikon). For 3D growth experiment in Matrigel, 10^4 HCT116 cells were resuspended in 300 μl of complete medium containing 5 mg/ml Matrigel (BD, France) and different concentrations of compound (0.1, 1, 10, 17.5, 25 and 50 μM), and poured in 24-well plates. After solidification at 37° C. for 15 min., complete medium containing the compound was added to each well. Cells were incubated for 1 week before they were collected using Matrisperse (BD, France) according to the manufacturer's instructions. After recovery, alive cells were counted with trypan blue exclusion.

The test system of test [9] is MDA-MB-231 cells. Put plainly: Matrigel invasion assay (Boyden chamber). Format: cell-based, human. The method in brief: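 MDA-MB-231 cells were pretreated overnight with compound (1, 10, 17.5, 25, 50 μM). 10^5 cells in serum-free 0.1% BSA medium with compound were placed on 8 μm membranes coated with Matrigel (125 μg/cm^2), with 10% FBS plus compound below. After 6 h at 37 °C, cells on the filter underside were Diff-Quick stained and counted.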

In test [10] the test system is Ras. Briefly: Ras-dependant signaling pathway analysis (reporter system). Format: cell-based. The arrangement: key: −: no effect of the compound was observed; +: an effect of the compound was observed. The method in brief: (§2)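 Ras and Rac signalling were measured with reporter systems. For colony formation, NIH3T3 cells were transfected with RasV12 or RacV12 plus neomycin plasmids, then grown 2-3 weeks in 400 μg/ml geneticin with compound at 1, 10, 17.5, 25 or 50 μM. Fuchsin-stained colonies of ≥50 cells were counted.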

Test [11] has as its system NIH3T3 cells. Put plainly: Colony formation assay with constitutively activated Ras (RasV12) and Rac (RacV12). Format: cell-based, mouse. On the set-up: key to Colony formation: −: no effect of the compound was observed; +: an effect of the compound was observed. The method, boiled down:
as §2

Test [12] relates to cell architecture. Briefly: Cell architecture modification, phase contrast. Type of test: cell-based. The arrangement: key: −: no effect of the compound was observed; +: an effect of the compound was observed.
The test system of test [13] is NIH3T3. Put plainly: Cytoskeleton analysis, actin staining (FITC-phalloidin). Format: cell-based, mouse. Here is the method:
(§3) Since major rearrangements of cytoskeleton are observed in tumor cells and since the small GTPases are known to regulate these events, analysis of actin cytoskeleton was performed. Subconfluent cells seeded onto coverslips were treated with different concentration of compound (1, 10, 17.5, 25 and 50 μM) or vehicle for 24 h, before being fixed in 4% formaldehyde for 15 min., permeabilized in 0.2% Triton X100 for 5 minutes and incubated in PowerBlock (Biogenex) for 10 min. Actin filaments were stained with 0.5 μg/ml fluorescein isothiocyanate (FITC)-labelled phalloidin for 1 hour. Analysis was performed using an inverted fluorescent microscope.

The test system of test [14] is H460. Described as above. Type of test: cell-based, human. Conditions: 24 h treatment. Here is the method: as §3
Test [15] deals with HCT116. The description is as above. Format: cell-based, human. To be noted: 24 h treatment. The procedure: as §3
In test [16] the test system is MDA-MB-231 cells. Briefly: Migration assay (Boyden chamber, non-coated filters). Format: cell-based, human. Conditions: MDA-MB-231, Boyden chamber. Here is the method: One day after seeding, 10^6 MDA-MB-231 cells were treated overnight with different concentrations of compounds (1, 10, 17.5, 25 and 50 μM). Cells were collected with Versene (Invitrogen), counted with trypan blue exclusion, rinsed twice in serum-free medium containing 0.1% BSA and resuspended in serum-free medium containing 0.1% BSA plus the appropriate concentration of compound. 10^5 treated cells were placed in the upper chamber. Medium containing 10% of FBS plus the appropriate concentration of compound was placed in the lower chamber as a chemoattractant. The Boyden chamber was incubated 6 hours at 37° C. before the cells were fixed and stained with Diff-Quick (Dade-Berhing). Cells on the upper part of the filters were removed using a cotton swab. Cells on the underside of the filters were visualised and counted under light microscope.
The migration assay was performed the same way, using non-coated filters.

SMILES strings stand for the structures.

Regarding `CCCc1ccccc1OCCCCCOc1coc(CO)cc1=O` [EH18900, 5-[5-(2-Propylphenyloxy)pentyloxy]-2-(hydroxymethyl)-4H-pyran-4-one], the IC50 in test [1] is 40 µM; in test [2], 30 µM; in [3], 50 µM; in test [4] it was over 50 µM; in test [5] it was 17.5 µM; in [6] it was 0.5 µM. Also, the IC50 was 35 µM in test [7] and 1 to 5 µM in test [8]. Also, in test [9], the “concentration giving an increase in invasive properties of MDA-MB-231 cells” value was 50 µM. In addition, the Invasion entry in test [9] (MDA-MB-231, Boyden chamber, matrigel) is recorded as “Increase”. Besides, in test [10], the “Small GTPases activities Ras” value is listed as “−”. Also, the Colony formation entry in test [11] was “+”. Further, the “Ras-dependent neoR clones formation” value in test [11] (NIH3T3 transfected with RasVal12) is listed as “inhibited”. Moreover, the “Cell architecture modification phase contrast” value in test [12] was “+”. Moreover, the “Cell architecture modification actin staining (R: ruffles; FC: focal complexes) NIH3T3” value in [13] (24 h treatment) is listed as “R-, FC+”. Also, the “concentration at which specific inhibition of membrane ruffles and increase in the number of stress fibers was observed” value in [13] (NIH3T3, actin staining) is 10 µM. The “Cell architecture modification actin staining H460” value in test [14] is “cell spreading”. In addition, in test [15], the “Cell architecture modification actin staining HCT116” value is reported as “cell spreading”. In addition, the Migration result in test [16] was “no effect”.
